Positions count from the first letter of the chain named. Converted amounts (≈) assume the structure as drawn. The source made the active and inactive calls. The calls are words filed in the database; no cut-off is given here.
Experiments:
[1] = target: T1, Ceramide glucosyltransferase (Homo sapiens, UniProt Q16739); assay: Inhibition of human GCS using C8-ceramide and UDP-glucose as substrate incubated for 1 hr by RapidFire mass spectrometry
T1 sequence (Q16739 whole entry): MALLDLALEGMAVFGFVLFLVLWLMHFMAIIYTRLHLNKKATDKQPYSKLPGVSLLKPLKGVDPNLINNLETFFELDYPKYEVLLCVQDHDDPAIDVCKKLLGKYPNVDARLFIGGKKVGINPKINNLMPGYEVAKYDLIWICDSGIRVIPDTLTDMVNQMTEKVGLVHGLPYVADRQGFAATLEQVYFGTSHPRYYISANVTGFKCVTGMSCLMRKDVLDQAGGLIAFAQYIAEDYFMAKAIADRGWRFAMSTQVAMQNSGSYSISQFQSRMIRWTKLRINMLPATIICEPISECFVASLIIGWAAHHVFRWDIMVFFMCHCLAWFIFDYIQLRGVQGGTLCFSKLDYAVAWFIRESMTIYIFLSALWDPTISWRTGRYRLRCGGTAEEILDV

[2] = Kinetic solubility of the compound in JP2 fluid at pH 6.8 by precipitation method; type: physicochemical; details: read-out: Kinetic_solubility
[3] = Cardiotoxicity in human iPSC-derived cardiomyocytes assessed as minimum effective concentration required for intracellular calcium transients-mediated proarrhythmic activity by Fluo-4 dye based fluorescence analysis; type: toxicity; details: cardiac muscle cell
[4] = Efflux ratio of apparent permeability from basolateral to apical side over apical to basolateral side in dog MDCK-MDR1 cells at 1 uM measured after 1 hr by LC-MS/MS analysis; type: ADME, cell-based, Canis lupus familiaris
[5] = Unbound drug concentration in brain of non-fasted ICR mouse at 30 mg/kg, po measured after 1 hr by LC-MS/MS analysis; type: ADME, organism-based; details: in vivo
[6] = Plasma clearance in non-fasted ICR mouse at 0.5 mg/kg, iv by LC-MS/MS analysis; type: ADME, organism-based
[7] = Cardiotoxicity in human iPSC-derived cardiomyocytes assessed as induction of proarrhythmic activity at 10 uM by Fluo-4 dye based fluorescence analysis; type: toxicity; details: cardiac muscle cell
[8] = Intrinsic clearance in human liver microsomes at 1 uM in presence of NADPH generating system assessed per mg protein by LC-MS/MS analysis; type: ADME, Microsome; details: read-out: CLH
[9] = target: CYP3A4 (Homo sapiens, UniProt P08684); assay: Inhibition of CYP3A4 in human liver microsomes using midazolam as substrate at 10 uM in presence of NADPH generating system incubated for 10 mins; type: ADME; details: probe midazolam
[10] = target: T2, Ceramide glucosyltransferase (Homo sapiens) (UniProt Q16739); assay: Non-competitive inhibition of GCS (unknown origin) using 1 to 70 uM C8-ceramide and 0.1 to 200 uM UDP-glucose as substrate incubated for 1 hr by RapidFire mass spectrometry
T2 sequence (whole entry): T1 sequence (Q16739 whole entry)

[11] = Volume of distribution at steady state in non-fasted ICR mouse at 0.5 mg/kg, iv by LC-MS/MS analysis; type: ADME, organism-based; details: in vivo, read-out: Vdss
[12] = target: Nav1.5 (Homo sapiens, UniProt Q14524); assay: Inhibition of human Nav1.5 at 30 uM by automated whole cell patch clamp assay; type: toxicity
[13] = target: T3, Ceramide glucosyltransferase (Mus musculus, UniProt O88693); assay: Inhibition of mouse GCS using C8-ceramide and UDP-glucose as substrate incubated for 1 hr by RapidFire mass spectrometry
T3 sequence (O88693 whole entry): T1 sequence (Q16739 whole entry) with L8Q, V13L, L20V, A29S, G131A, Y196S, A251S

[14] = tested on: Mus musculus; assay: In vivo inhibition of GCS activity in po dosed C57BL/6J mouse assessed as reduction in GlcCer level in cerebral cortex measured after 6 hrs; type: functional, organism-based; details: dose 30-300 mg/kg
[15] = 1-Octanol/aqueous buffer partition coefficient, logD of the compound at pH 7.4 by chromatographic method; type: physicochemical
[16] = AUC in non-fasted ICR mouse at 5 mg/kg, po by LC-MS/MS analysis; type: ADME, organism-based; parameters: dose 5 mg/kg; details: in vivo
[17] = Fraction unbound in plasma of non-fasted ICR mouse at 30 mg/kg, po measured after 1 hr by LC-MS/MS analysis; type: ADME, organism-based
[18] = Fraction unbound in brain of non-fasted ICR mouse at 30 mg/kg, po measured after 1 hr by LC-MS/MS analysis; type: ADME, organism-based
[19] = target: T4, CYP1A2 (Homo sapiens, UniProt P05177); assay: Inhibition of CYP1A2 in human liver microsomes using tacrine as substrate at 10 uM in presence of NADPH generating system incubated for 10 mins; type: ADME; details: probe tacrine
T4 sequence (P05177 whole entry): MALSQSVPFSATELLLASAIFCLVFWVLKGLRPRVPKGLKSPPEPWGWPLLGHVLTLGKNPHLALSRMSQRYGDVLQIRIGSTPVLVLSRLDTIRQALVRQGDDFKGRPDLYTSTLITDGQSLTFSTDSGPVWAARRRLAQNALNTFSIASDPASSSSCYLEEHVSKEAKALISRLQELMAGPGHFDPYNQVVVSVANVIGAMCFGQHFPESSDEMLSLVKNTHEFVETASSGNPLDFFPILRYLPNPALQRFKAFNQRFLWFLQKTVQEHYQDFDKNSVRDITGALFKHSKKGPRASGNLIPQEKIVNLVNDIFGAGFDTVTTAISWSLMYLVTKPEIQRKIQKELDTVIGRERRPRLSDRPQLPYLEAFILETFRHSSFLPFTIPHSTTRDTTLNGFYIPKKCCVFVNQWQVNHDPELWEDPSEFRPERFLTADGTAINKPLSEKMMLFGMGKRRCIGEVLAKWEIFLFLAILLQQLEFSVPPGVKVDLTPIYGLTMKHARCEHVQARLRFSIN

Nav1.5, sequence (Q14524 whole entry): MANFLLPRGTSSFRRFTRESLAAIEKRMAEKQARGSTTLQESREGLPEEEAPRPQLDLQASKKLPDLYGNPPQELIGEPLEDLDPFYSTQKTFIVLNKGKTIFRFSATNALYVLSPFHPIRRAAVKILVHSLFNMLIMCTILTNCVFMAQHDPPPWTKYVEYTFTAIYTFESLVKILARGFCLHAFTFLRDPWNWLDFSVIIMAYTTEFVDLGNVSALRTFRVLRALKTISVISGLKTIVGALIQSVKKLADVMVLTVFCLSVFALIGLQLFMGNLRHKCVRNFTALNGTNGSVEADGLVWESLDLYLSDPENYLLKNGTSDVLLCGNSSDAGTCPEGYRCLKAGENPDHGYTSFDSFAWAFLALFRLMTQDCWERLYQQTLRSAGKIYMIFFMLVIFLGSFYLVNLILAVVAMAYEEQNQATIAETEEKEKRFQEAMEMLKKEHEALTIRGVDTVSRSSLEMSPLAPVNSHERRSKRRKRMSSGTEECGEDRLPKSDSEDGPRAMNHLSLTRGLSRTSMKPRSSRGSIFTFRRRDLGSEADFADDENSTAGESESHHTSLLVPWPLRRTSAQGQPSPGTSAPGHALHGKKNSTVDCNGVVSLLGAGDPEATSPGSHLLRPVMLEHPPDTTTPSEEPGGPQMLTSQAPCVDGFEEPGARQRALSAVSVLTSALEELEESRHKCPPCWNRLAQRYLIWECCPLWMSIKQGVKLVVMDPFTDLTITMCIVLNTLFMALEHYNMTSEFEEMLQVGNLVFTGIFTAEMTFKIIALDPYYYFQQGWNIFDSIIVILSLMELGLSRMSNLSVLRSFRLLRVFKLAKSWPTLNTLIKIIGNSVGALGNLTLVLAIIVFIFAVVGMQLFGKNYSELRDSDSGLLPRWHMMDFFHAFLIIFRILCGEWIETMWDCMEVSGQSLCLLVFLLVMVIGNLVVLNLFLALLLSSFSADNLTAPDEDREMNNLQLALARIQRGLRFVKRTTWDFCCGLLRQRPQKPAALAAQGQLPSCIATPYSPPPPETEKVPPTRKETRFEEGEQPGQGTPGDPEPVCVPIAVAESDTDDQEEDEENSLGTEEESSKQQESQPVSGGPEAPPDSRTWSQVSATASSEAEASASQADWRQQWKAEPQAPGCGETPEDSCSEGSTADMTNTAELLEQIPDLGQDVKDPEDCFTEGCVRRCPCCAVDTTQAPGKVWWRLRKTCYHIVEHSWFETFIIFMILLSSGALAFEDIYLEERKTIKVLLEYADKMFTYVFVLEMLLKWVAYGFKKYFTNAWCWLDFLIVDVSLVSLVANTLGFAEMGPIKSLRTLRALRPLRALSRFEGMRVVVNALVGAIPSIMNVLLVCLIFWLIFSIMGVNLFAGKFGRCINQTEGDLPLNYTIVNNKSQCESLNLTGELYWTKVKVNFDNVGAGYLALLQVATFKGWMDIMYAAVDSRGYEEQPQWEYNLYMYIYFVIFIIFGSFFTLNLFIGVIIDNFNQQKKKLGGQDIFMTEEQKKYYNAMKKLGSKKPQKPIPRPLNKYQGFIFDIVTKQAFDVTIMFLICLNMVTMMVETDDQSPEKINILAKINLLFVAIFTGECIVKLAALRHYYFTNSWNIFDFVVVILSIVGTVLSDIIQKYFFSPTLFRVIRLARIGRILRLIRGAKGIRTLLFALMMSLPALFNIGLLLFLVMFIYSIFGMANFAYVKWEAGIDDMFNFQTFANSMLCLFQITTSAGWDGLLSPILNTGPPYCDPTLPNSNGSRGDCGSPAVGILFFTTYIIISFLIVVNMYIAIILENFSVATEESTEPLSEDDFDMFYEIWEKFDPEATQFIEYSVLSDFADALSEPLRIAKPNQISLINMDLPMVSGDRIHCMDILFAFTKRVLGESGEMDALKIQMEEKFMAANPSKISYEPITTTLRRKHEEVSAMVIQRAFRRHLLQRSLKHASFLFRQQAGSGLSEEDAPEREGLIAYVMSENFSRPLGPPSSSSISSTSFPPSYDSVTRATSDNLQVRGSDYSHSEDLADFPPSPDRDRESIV
CYP3A4, sequence (P08684 whole entry): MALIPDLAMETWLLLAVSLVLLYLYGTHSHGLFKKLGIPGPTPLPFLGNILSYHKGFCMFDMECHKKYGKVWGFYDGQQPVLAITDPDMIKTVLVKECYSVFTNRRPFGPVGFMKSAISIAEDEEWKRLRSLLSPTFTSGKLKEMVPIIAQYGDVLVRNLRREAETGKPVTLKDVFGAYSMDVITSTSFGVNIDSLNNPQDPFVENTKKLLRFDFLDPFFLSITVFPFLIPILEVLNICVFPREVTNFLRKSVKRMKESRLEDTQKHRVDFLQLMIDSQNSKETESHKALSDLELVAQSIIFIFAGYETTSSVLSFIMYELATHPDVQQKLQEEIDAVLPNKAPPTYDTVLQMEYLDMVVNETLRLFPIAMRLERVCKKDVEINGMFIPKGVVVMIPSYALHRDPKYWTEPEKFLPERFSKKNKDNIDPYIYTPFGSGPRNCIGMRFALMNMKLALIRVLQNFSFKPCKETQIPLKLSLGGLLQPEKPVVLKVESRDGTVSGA

- IC50 [1]: 15 nM
- solubility kinetic [2]: 45 µg/mL (≈ 101 µM)
- efflux ratio at 1 h, 1 µM [4]: 8.8
- Drug uptake(free) [5]: 0.21 µM
- clearance [6]: 33.7 mL/min/kg
- microsomal CLint at 1 µM [8]: 32 µL/min/mg
- inhibition at 10 min, 10 µM [9]: -4.8%
- inhibition [10]: Active
- Vd [11]: 1.97 L/kg
- IC50 [13]: 190 nM
- chromatographic logD [15]: 2.42
- AUC [16]: 829 ng·h/mL
- fraction unbound at 1 h [17]: 0.23
- fraction unbound at 1 h [18]: 0.039
- inhibition at 10 min, 10 µM [19]: 9.3%
Compound: CC(C)(O)c1ccc(NC(=O)c2ccnn(-c3ccccc3OCC(F)(F)F)c2=O)cc1
- MEC [3]: > 10 µM
- Activity [7]: Non-Toxic
- inhibition at 30 µM [12]: 20%
- inhibition [14]: Dose-Dependent Effect

Source: ChEMBL document CHEMBL5046282, “Discovery of Brain-Penetrant Glucosylceramide Synthase Inhibitors with a Novel Pharmacophore” (J Med Chem, 2022)
